From patent publication US12414994B2, “Compositions comprising lopinavir and treatment of conditions” (DOUGLAS PHARMACEUTICALS LIMITED, priority 2019, dated 2025)
Where two headings read alike, the source gives them in different places.

Columns and labels:
[1] = system: labial or skin HSV lesions; conditions: episodic topical application, cited from earlier work
HSV2 strain HG52 = assay: HSV2 replication assay in N-Tert keratinocytes (anti-HSV immunostaining); format: cell-based; conditions: for effect against HSV2 replication: FIG. 2B
Description: (§1) Cell Culture; Telomerase immortalised N-Tert human foreskin Keratinocyes were maintained in standard T-75 tissue culture flasks (Corning, USA) in 25 ml of Keratinocyte serum-free medium (KSFM) supplemented with L-glutamine, 0.2 ng/ml epidermal growth factors (EGF) and 25 μg/mL bovine pituitary extract (BPE) (Gibco, Invitrogen, UK). These were maintained at 37° C. in a humidified atmosphere of 5% CO2 and the medium was changed every 2 days as required. For routine sub-culture the medium was aspirated, cells washed with PBS (Gibco-Invitrogen, UK) and 2 ml of Cell Culture Grade Trypsin 0.05% solution with EDTA (Gibco-Invitrogen, UK) added to each flask which was incubated at 37° C./5% CO2 for 10 minutes. A 10 ml aliquot of KSFM plus 10% foetal bovine serum (FBS) (Gibco-Invitrogen, UK) was then added and the cells centrifuged at 6000 g for 6 minutes. The medium was aspirated and cells washed with 10 mls of PBS (Gibco Invitrogen, UK) followed by re-suspension in 10 mls of fresh KSFM and final a cell count carried out. HSV1 & 2 Replication Assays; T25 flasks (Corning, USA) were each seeded with 600,000 N-Tert cells in serum-free KSFM plus supplements and incubated at 37° C./5% CO2 until confluent (Approximately 72 hours). The medium was then aspirated and cells infected with either 25 μl aliquot of HSV2 strain HG52, 1 μl of HSV1 strain 17+ or a 5 μl aliquot of the acyclovir resistant HSV2 strain 132349 ACV-res (Public Health England, Porton Down, UK) in 0.5 ml of serum-free KSFM plus supplements for a period of 2 hours at 37° C./5% CO2. The volume of each HSV strain stock used was empirically determined as the amount required to produce pronounced cytopathic changes in infected control flasks over the time course of the experiment. A 9.5 ml aliquot of KSFM plus supplements was then added to each flask and cells infected with the HG52 or 17+ strains incubated overnight whereas cell infected with the 132349 ACV-res strain were incubated for 5 hours at 37° C./5% CO2. Stock solutions of each active pharmaceutical ingredient (API) were freshly prepared every week from dry powder (Douglas Pharna, NZ) dissolved volumetrically in DMSO at 100 mM and stored at −20° C. Appropriate final dilutions of these API stocks solutions were made in KSFM plus supplements such that the same volume of DMSO (2 μl) was added to each infected flask. Where mixed APIs were used, concentrations were calculated as w/w ratios. API treated HSV2 HG52 infected cells were then incubated for 48 hours, HSV1 17+ infected cells were incubated for 8 hours and HSV-2 132349 ACV-res infected cells were incubated for 12 hours prior to harvesting for immunostaining. A concentration of 5 μM Acyclovir (VWR International, UK) was also added as a comparator to flasks infected with HSV-2 132349 ACV-res in order to verify the acyclovir resistant nature of the strain. […] Harvesting & Immunostaining; Growth medium was decanted from each flask and placed into 15 ml universal tubes (Corning, USA) and the cells rinsed with 1 ml of 1×PBS which was pooled with the growth medium. A 1 ml aliquot of NB Cell Culture Grade Trypsin 0.05% solution with EDTA was added to each T-25 flask and cells incubated at 37° C./5% CO2 for 10 minutes. A 1 ml aliquot of FBS was added to the decanted growth medium plus PBS from the previous step and 2 ml of this was then added to each flask to inactivate the trypsin. The trypsinised cells were then pooled with the decanted growth medium and an aliquot taken for analysis of cell viability using Via-1 cassette NC3000 cell cytometer assays (CheoMetec A/S, Denmark). The remaining cells were centrifuged at 6000 g for 5 minutes, the medium aspirated and the cells re-suspended and washed with 10 ml of PBS followed by re-centrifugation. Finally the cells were re-suspended in 70% of ice-cold ethanol, stored overnight at 4° C. and a volume containing 60,000 cells was aliquoted into 1.5 ml Eppendorf tubes and centrifuged for 5 minutes at 5000 rpm. […]

HSV1 strain 17+ = assay: HSV1 replication assay in N-Tert keratinocytes (anti-HSV immunostaining); format: cell-based; conditions: for effects on HSV1 replication: FIG. 4B; for effect on HSV1 replication: pre-treatment virus incubation reduced by 2 hours, FIG. 5B
Description: as §1, with “trypsin.” for “trypsin. The trypsinised cells were then pooled with the decanted growth medium and an aliquot taken for analysis of cell viability using Via-1 cassette NC3000 cell cytometer assays (CheoMetec A/S, Denmark). The remaining cells were centrifuged at 6000 g for 5 minutes, the medium aspirated and the cells re-suspended and washed with 10 ml of PBS followed by re-centrifugation. Finally the cells were re-suspended in 70% of ice-cold ethanol, stored overnight at 4° C. and a volume containing 60,000 cells was aliquoted into 1.5 ml Eppendorf tubes and centrifuged for 5 minutes at 5000 rpm.”

[2] = system: uninfected N-Tert keratinocytes; assay: Cytotoxicity assay (Via-1 cassette viability); format: cell-based; conditions: human, 48 h
Description: (§2) Cell Culture; Telomerase immortalised N-Tert human foreskin Keratinocyes were maintained in standard T-75 tissue culture flasks (Corning, USA) in 25 ml of Keratinocyte serum-free medium (KSFM) supplemented with L-glutamine, 0.2 ng/ml epidermal growth factors (EGF) and 25 μg/mL bovine pituitary extract (BPE) (Gibco, Invitrogen, UK). These were maintained at 37° C. in a humidified atmosphere of 5% CO2 and the medium was changed every 2 days as required. For routine sub-culture the medium was aspirated, cells washed with PBS (Gibco-Invitrogen, UK) and 2 ml of Cell Culture Grade Trypsin 0.05% solution with EDTA (Gibco-Invitrogen, UK) added to each flask which was incubated at 37° C./5% CO2 for 10 minutes. A 10 ml aliquot of KSFM plus 10% foetal bovine serum (FBS) (Gibco-Invitrogen, UK) was then added and the cells centrifuged at 6000 g for 6 minutes. The medium was aspirated and cells washed with 10 mls of PBS (Gibco Invitrogen, UK) followed by re-suspension in 10 mls of fresh KSFM and final a cell count carried out. HSV1 & 2 Replication Assays; T25 flasks (Corning, USA) were each seeded with 600,000 N-Tert cells in serum-free KSFM plus supplements and incubated at 37° C./5% CO2 until confluent (Approximately 72 hours). The medium was then aspirated and cells infected with either 25 μl aliquot of HSV2 strain HG52, 1 μl of HSV1 strain 17+ or a 5 μl aliquot of the acyclovir resistant HSV2 strain 132349 ACV-res (Public Health England, Porton Down, UK) in 0.5 ml of serum-free KSFM plus supplements for a period of 2 hours at 37° C./5% CO2. The volume of each HSV strain stock used was empirically determined as the amount required to produce pronounced cytopathic changes in infected control flasks over the time course of the experiment. A 9.5 ml aliquot of KSFM plus supplements was then added to each flask and cells infected with the HG52 or 17+ strains incubated overnight whereas cell infected with the 132349 ACV-res strain were incubated for 5 hours at 37° C./5% CO2. […] Where mixed APIs were used, concentrations were calculated as w/w ratios. […]

herpesvirus = conditions: Gantt et al. (2011) Table 1; cited from earlier work
[3] = system: acyclovir resistant HSV2 strain 132349 ACV-res; assay: Acyclovir resistant HSV2 replication assay in N-Tert keratinocytes; format: cell-based
Description: as §2

HSV-2 132349 ACV-res = conditions: Houston et al (2017) Table 2; cited from earlier work
HSV1 17+ strain = conditions: Houston et al (2017) Table 2; cited from earlier work
[4] = cited from earlier work

Nc1nc2c(ncn2CCC(CO)CO)c(=O)[nH]1 [penciclovir]
improvement of healing times ([1]; 1% penciclovir cream): approximately 10%

Cc1c(O)cccc1C(=O)N[C@@H](CSc1ccccc1)[C@H](O)CN1C[C@H]2CCCC[C@H]2C[C@H]1C(=O)NC(C)(C)C [nelfinavir]
effect against HSV2 replication (HSV2 strain HG52; 2 μM): less effective against HSV2 replication than 10 μM nelfinavir | effect against HSV2 replication (HSV2 strain HG52; 5 μM): less effective against HSV2 replication than 10 μM nelfinavir | effect against HSV2 replication (HSV2 strain HG52; 10 μM): as effective as 20 μM 12:1 Lop/Rit | effects on HSV1 replication (HSV1 strain 17+; 2 μM): very modest effects | effect on HSV1 replication (HSV1 strain 17+; 2 μM): no discernible effect | effects on HSV1 replication (HSV1 strain 17+; 10 μM): very modest effects | effect on HSV1 replication (HSV1 strain 17+; 10 μM): no discernible effect | concentrations with significant toxic effects on eukaryotic cells [2]: above 2 μM | cell viability ([2]; 10 μM): < 60% | cell viability ([2]; 20 μM): about 40% | effect on herpesvirus replication (herpesvirus): inhibitory effect on viruses

Nc1nc2c(ncn2COCCO)c(=O)[nH]1 [Acyclovir, acyclovir]
number of virus positive cells ([3]; Acyclovir, FIG. 6B): did not, as expected reduce the number of virus positive cells | concentration required for toxicity against this strain (HSV-2 132349 ACV-res): > 100 µM | concentration that proved very effective (HSV1 17+ strain): < 0.8 µM | improvement of healing times ([1]; 3-5% acyclovir cream): approximately 10%

Cc1cccc(C)c1OCC(=O)N[C@@H](Cc1ccccc1)[C@@H](O)C[C@H](Cc1ccccc1)NC(=O)[C@H](C(C)C)N1CCCNC1=O (relative stereo) [lopinavir, [1S-[1R*(R*), 3R*, 4R*]]-N-[4-[(2,6-dimethylphenoxy0acetyl]amino]-3-hydroxy-5-phenyl-1-(phenylmethyl)pentyl]tetrahydro-alpha-(1-methylethyl)-2-oxo-1(2H)-pyrimidineacetamide]
effect against HSV2 replication compared with nelfinavir (HSV2 strain HG52; 20 μM): more effective against HSV2 replication than either 2 or 5 μM nelfinavir | HSV2 positive cells (anti-HSV antibody immunostaining images) (HSV2 strain HG52; 20 μM, 48 hours, FIG. 1B): Very few HSV2 positive cells | cytopathic effects of HSV2 infection (phase contrast morphology) (HSV2 strain HG52; 20 μM, 48 hours, N-Tert keratinocytes, FIG. 1A): virtually no cytopathic effects | percentage of virus positive cells (quantitative analysis of immune staining) (HSV2 strain HG52; 20 μM, FIG. 1C): marked reduction | effect on HSV1 replication (HSV1 strain 17+; 20 μM): by far the greatest activity | number of virus positive cells ([3]; 10 μM, FIG. 6B (DMSO control 50%)): 10% | number of virus positive cells ([3]; 20 μM, FIG. 6B (DMSO control 50%)): 5% | effect on herpesvirus replication (herpesvirus): ineffective | solubility in water [4]: virtually insoluble in water

CC(C)c1nc(CN(C)C(=O)N[C@H](C(=O)N[C@@H](Cc2ccccc2)C[C@H](O)[C@H](Cc2ccccc2)NC(=O)OCc2cncs2)C(C)C)cs1 (relative stereo) [ritonavir, 10-Hydroxy-2-methyl-5-(1-methylethyl)-1-[2-(1-methylethyl)-4-thiazolyl]-3,6-dioxo-8,11bis(phenylmethyl)-2,4,7,12-tetraazatridecan-13-oic acid, 5-thiazolylmethylester, [5S-(5R*,8R*,10R8,11R*)]]
effect on herpesvirus replication (herpesvirus): ineffective
